Literature values, collected in patent US20230364129A1, “TOPICAL COMPOSITIONS” (Prime Performance Research LLC, priority 2022, published 2023).

What was measured:
[1] = system: NF-κB transcription factor in antigen presenting cells
[2] = system: hind paw oedema, synovitis and destruction of the articular cartilage; conditions: orally administered; several animal studies (Volpi, 2011)
[3] = carnosine 200 μmol/L; hydroxyl and/or peroxy-type radicals (Drafi, 2010)
[4] = system: human colorectal cancer cells; conditions: by suppressing NF-κB/STAT1 signaling (Lee, 2018)

Compound	activation of the NF-κB transcription factor ([1]; antigen presenting cells (Zhang, 2015))	TNF-α production ([1]; through the TLR/MyD88 pathway (Zhang, 2015))	hind paw oedema, synovitis and destruction of the articular cartilage [2]	effect on hyaluronan degradation [3]	cell cycle arrest and apoptosis [4]
Chondroitin sulfate [CS]	could activate	induce TNF-α production	significantly inhibited		
NCCC(=O)N[C@@H](Cc1cnc[nH]1)C(=O)O [carnosine, beta-alanyl-L-histidine]				protective action	induces cell cycle arrest and apoptosis
